Where two headings read alike, the source gives them in different places.
Molecular target: T1, human Polq polymerase domain (Homo sapiens, UniProt O75417)
T1 sequence (O75417 1792-2590): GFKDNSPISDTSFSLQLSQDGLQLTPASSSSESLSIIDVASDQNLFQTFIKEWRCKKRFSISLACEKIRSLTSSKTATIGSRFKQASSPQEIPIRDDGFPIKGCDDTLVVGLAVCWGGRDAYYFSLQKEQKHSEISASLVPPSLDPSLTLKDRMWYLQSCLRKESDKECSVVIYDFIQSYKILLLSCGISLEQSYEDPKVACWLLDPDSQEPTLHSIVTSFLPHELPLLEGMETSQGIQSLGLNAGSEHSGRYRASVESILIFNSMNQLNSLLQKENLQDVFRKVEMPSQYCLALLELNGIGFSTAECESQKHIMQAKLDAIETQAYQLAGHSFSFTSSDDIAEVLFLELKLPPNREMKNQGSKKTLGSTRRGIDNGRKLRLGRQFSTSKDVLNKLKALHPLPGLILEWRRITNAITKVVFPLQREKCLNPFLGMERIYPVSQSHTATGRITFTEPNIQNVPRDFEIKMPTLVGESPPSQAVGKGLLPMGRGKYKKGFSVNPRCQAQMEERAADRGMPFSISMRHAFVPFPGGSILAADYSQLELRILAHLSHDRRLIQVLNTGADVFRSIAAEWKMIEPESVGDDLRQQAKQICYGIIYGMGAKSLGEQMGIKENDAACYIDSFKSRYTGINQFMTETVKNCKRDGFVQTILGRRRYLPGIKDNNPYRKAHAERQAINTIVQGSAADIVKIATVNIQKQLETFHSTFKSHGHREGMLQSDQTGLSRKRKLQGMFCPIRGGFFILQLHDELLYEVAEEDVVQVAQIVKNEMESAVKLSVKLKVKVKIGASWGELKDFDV
Assay: Cy5 fluorescence assay of Polq polymerase domain inhibition
Type: biochemical
Protocol: The following Cy5 fluorescence assay was used to measure the ability of compounds to inhibit Polq polymerase domain in vitro. The fluorescent based assay was performed as follows: 60 nM of the pre-annealed primer-template containing a 5′ Cy5 fluorophore conjugated template strand (SEQ ID NO:3: 5′-/5Cy5/[…]-3′), a downstream complementary oligo conjugated with a 3′ Blackhole quencher (SEQ ID NO:4: 5′-CTAAGCTCACAGTG/3IAbRQSp/-3′) and a primer strand (SEQ ID NO:5: 5′-CTGTCCTGCATGATG-3′) was mixed with 50 uM 2′-deoxyribonucleoside triphosphates (dNTPs), 0.1 mg/mL Bovine serum albumin (BSA), 0.01% NP-40, 10% glycerol, 1 mM dithiothreitol (DTT), 10 mM MgCl2, 25 mM TrisHCl pH 7.8 in the presence of 2.5% DMSO with or without various concentrations (7-point dilution series) of Polq small molecule inhibitors represented by Formula I at 37 °C in a volume of 40 μL.

[1] = 5 nM Polq polymerase domain (residues 1792-2590), 60 nM primer-template, 50 uM dNTPs, 37 °C, 18 min, read-out: IC50 (nM) Polq

Compound	IC50	IC50 [1]
CN(C(=O)Oc1c(N2C(=O)NC(O)C2O)cc(C(F)(F)F)cc1C(F)(F)F)c1ccc(F)cc1 (stereo not drawn) [Example 16, 2-(4,5-dihydroxy-2-oxoimidazolidin-1-yl)-4,6-bis(trifluoromethyl)phenyl N-(4-fluorophenyl)-N-methylcarbamate]	5.4 nM	
CNCC(O)CN1CCN(c2cc(C(F)(F)F)cc(C(F)(F)F)c2OC(=O)N(C)c2ccc(F)c(Cl)c2F)C1=O (stereo not drawn) [Example 47, 2-(3-(2-hydroxy-3-(methylamino)propyl)-2-oxoimidazolidin-1-yl)-4,6-bis(trifluoromethyl)phenyl (3-chloro-2,4-difluorophenyl)(methyl)carbamate]	4.8 nM	
CN1C(=O)CN(c2cc(C(F)(F)F)cc(C(F)(F)F)c2OC(=O)N(C)c2ccc(F)cc2)C1=O [Example 27, 2-(3-methyl-2,4-dioxoimidazolidin-1-yl)-4,6-bis(trifluoromethyl)phenyl N-(4-fluorophenyl)-N-methylcarbamate]	24 nM	
[2H]C([2H])([2H])N(C(=O)Oc1c(N2CCN(CC3(O)CNC3)C2=O)cc(C(F)(F)F)cc1C(F)(F)F)c1ccc(F)cc1 [Example 36, 2-(3-((3-hydroxyazetidin-3-yl)methyl)-2-oxoimidazolidin-1-yl)-4,6-bis(trifluoromethyl)phenyl (4-fluorophenyl)(methyl-d3)carbamate]	6 nM	
CN(C(=O)Oc1c(N2CCN(CC3(O)CN(C(=O)OC(C)(C)C)C3)C2=O)cc(C(F)(F)F)cc1C(F)(F)F)c1ccc(F)cc1 [Example 23, tert-butyl 3-((3-(2-(((4-fluorophenyl)(methyl)carbamoyl)oxy)-3,5-bis(trifluoromethyl)phenyl)-2-oxoimidazolidin-1-yl)methyl)-3-hydroxyazetidine-1-carboxylate]	1.8 nM	
C[C@@H]1CCC(=O)N1c1cc(C(F)(F)F)cc(C(F)(F)F)c1OC(=O)N(C)c1ccc(F)cc1 [Example 17, 2-[(2R)-2-methyl-5-oxopyrrolidin-1-yl]-4,6-bis(trifluoromethyl)phenyl N-(4-fluorophenyl)-N-methylcarbamate]	1000 nM	
[2H]C([2H])([2H])N(C(=O)Oc1c(N2CCN(C[C@@H](O)CN(C)C)C2=O)cc(C(F)(F)F)cc1C(F)(F)F)c1ccc(F)cc1 [Example 49, (S)-2-(3-(3-(dimethylamino)-2-hydroxypropyl)-2-oxoimidazolidin-1-yl)-4,6-bis(trifluoromethyl)phenyl (4-fluorophenyl)(methyl-d3)carbamate]		7.5 nM
CC(=O)N1CCN(CCN2CCN(c3cc(C(F)(F)F)cc(C(F)(F)F)c3OC(=O)N(C)c3ccc(F)cc3)C2=O)CC1 [Example 2, 2-(3-(2-(4-acetylpiperazin-1-yl)ethyl)-2-oxoimidazolidin-1-yl)-4,6-bis(trifluoromethyl)phenyl (4-fluorophenyl)(methyl)carbamate]	4.5 nM	
[2H]C([2H])([2H])N(C(=O)Oc1c(N2CCN(CC(O)CN(C)C)C2=O)cc(C(F)(F)F)cc1C(F)(F)F)c1ccc(F)cc1 (stereo not drawn) [Example 46, 2-(3-(3-(dimethylamino)-2-hydroxypropyl)-2-oxoimidazolidin-1-yl)-4,6-bis(trifluoromethyl)phenyl (4-fluorophenyl)(methyl-d3)carbamate]		5.5 nM
CN(C(=O)Oc1c(N2CCN(CCN3CCOCC3)C2=O)cc(C(F)(F)F)cc1C(F)(F)F)c1ccc(F)cc1 [Example 1, 2-(3-(2-morpholinoethyl)-2-oxoimidazolidin-1-yl)-4,6-bis(trifluoromethyl)phenyl (4-fluorophenyl)(methyl)carbamate]	12 nM	
CN(C(=O)Oc1c(N2CC[C@H](O)C2=O)cc(C(F)(F)F)cc1C(F)(F)F)c1ccc(F)cc1 [Example 19, 2,4-bis(trifluoromethyl)-6-((S)-3-hydroxy-2-oxopyrrolidin-1-yl)phenyl 4-fluorophenylmethylcarbamate]		16 nM
Cc1cc(N(C)C(=O)Oc2c(N3CCNC3=O)cc(C(F)(F)F)cc2C(F)(F)F)ccc1F [Example 28, 2-(2-oxoimidazolidin-1-yl)-4,6-bis(trifluoromethyl)phenyl N-(4-fluoro-3-methylphenyl)-N-methylcarbamate]	1200 nM	
CC(O)CN1CCN(c2cc(C(F)(F)F)cc(C(F)(F)F)c2OC(=O)N(C)c2ccc(F)cc2)C1=O (stereo not drawn) [Example 20, 2,4-bis(trifluoromethyl)-6-(3-(2-hydroxypropyl)-2-oxoimidazolidin-1-yl)phenyl 4-fluorophenylmethylcarbamate]		2.4 nM
CN(C)CC(O)CN1CCN(c2cc(C(F)(F)F)cc(C(F)(F)F)c2OC(=O)N(C)c2ccc(F)cc2)C1=O (stereo not drawn) [Example 24, 2-(3-(3-(dimethylamino)-2-hydroxypropyl)-2-oxoimidazolidin-1-yl)-4,6-bis(trifluoromethyl)phenyl (4-fluorophenyl)(methyl)carbamate]		6.7 nM
[2H]C([2H])([2H])N(C(=O)Oc1c(N2CCN(CCn3cnnc3)C2=O)cc(C(F)(F)F)cc1C(F)(F)F)c1ccc(F)cc1 [Example 43, 2-(3-(2-(4H-1,2,4-triazol-4-yl)ethyl)-2-oxoimidazolidin-1-yl)-4,6-bis(trifluoromethyl)phenyl (4-fluorophenyl)(methyl-d3)carbamate]	5.4 nM	
CN(C(=O)Oc1c(N2CCNC2=O)cc(C(F)(F)F)cc1C(F)(F)F)c1cc(Cl)c(F)cc1F [Example 9, 2,4-bis(trifluoromethyl)-6-(2-oxoimidazolidin-1-yl)phenyl (5-chloro-2,4-difluorophenyl)(methyl)carbamate]	21 nM	
CN(C(=O)Oc1c(N2CCN(CCOS(=O)(=O)NC(=O)COCCOCCOCCN)C2=O)cc(C(F)(F)F)cc1C(F)(F)F)c1ccc(F)cc1 [Example 30, 2-(3-(2-(((4-fluorophenyl)(methyl)carbamoyl)oxy)-3,5-bis(trifluoromethyl)phenyl)-2-oxoimidazolidin-1-yl)ethyl (2-(2-(2-(2-aminoehoxy)ethoxy)ethoxy)acetyl)sulfamate]	2.2 nM	
O=C1NCCN1c1cc(C(F)(F)F)cc(C(F)(F)F)c1OC(=O)N(c1ccc(F)cc1)C1CC1 [Example 31, 2,4-bis(trifluoromethyl)-6-(2-oxoimidazolidin-1-yl)phenyl cyclopropyl4-fluorophenylcarbamate]		31 nM
[2H]C([2H])([2H])N(C(=O)Oc1c(N2C[C@@H](O)[C@@H](O)C2)cc(C(F)(F)F)cc1C(F)(F)F)c1ccc(F)cc1 [Example 41]	5.5 nM	
[2H]C([2H])([2H])N(C(=O)Oc1c(N2CCN(CC3(OS(N)(=O)=O)CN(C(=O)OC(C)(C)C)C3)C2=O)cc(C(F)(F)F)cc1C(F)(F)F)c1ccc(F)c(Cl)c1F [Example 39, tert-butyl 3-((3-(2-(((3-chloro-2,4-difluorophenyl)(methyl-d3)carbamoyl)oxy)-3,5-bis(trifluoromethyl)phenyl)-2-oxoimidazolidin-1-yl)methyl)-3-(sulfamoyloxy)azetidine-1-carboxylate]	3.8 nM	
CN(C(=O)Oc1c(N2CCN(CCOS(N)(=O)=O)C2=O)cc(C(F)(F)F)cc1C(F)(F)F)c1ccc(F)cc1 [Example 21, 2-{2-oxo-3-[2-(sulfamoyloxy)ethyl]imidazolidin-1-yl}-4,6-bis(trifluoromethyl)phenyl N-(4-fluorophenyl)-N-methylcarbamate]	1.9 nM	
Cc1cc(C(F)(F)F)cc(N2CCOC2=O)c1OC(=O)N(C)c1ccc(F)cc1 [Example 15, 4-(trifluoromethyl)-2-methyl-6-(2-oxooxazolidin-3-yl)phenyl 4-fluorophenylmethylcarbamate]		80 nM
[2H]C([2H])([2H])N(C(=O)Oc1c(N2CCN(C[C@H](O)CN(C)C)C2=O)cc(C(F)(F)F)cc1C(F)(F)F)c1ccc(F)cc1 [Example 50, (R)-2-(3-(3-(dimethylamino)-2-hydroxypropyl)-2-oxoimidazolidin-1-yl)-4,6-bis(trifluoromethyl)phenyl (4-fluorophenyl)(methyl-d3)carbamate]		5.1 nM
CN(C(=O)Oc1c(N2CCN(CC3CO3)C2=O)cc(C(F)(F)F)cc1C(F)(F)F)c1ccc(F)cc1 (stereo not drawn) [Example 25, 2,4-bis(trifluoromethyl)-6-(3-((oxiran-2-yl)methyl)-2-oxoimidazolidin-1-yl)phenyl (4-fluorophenyl)(methyl)carbamate]	5.8 nM	

Source: patent US20260356820A1, “Pyrrolidine and Imidazolidine Based DNA Polymerase Theta Inhibitors and Use Thereof” (Thomas Jefferson University, priority 2022, published 2026)
